Where a name gives a salt, the structure may show the parent alone.
Columns and labels:
[1] = test system: Diabetes mellitus patients; assay: Hemoglobin A1c value in diabetes mellitus patients after oral administration; type: in vivo, human; settings: 30 mg daily dose
Procedure: Diabetes mellitus patients (134 patients, age 57.6±11.5 years old, fasting blood glucose level 183.2±35.2 mg/dl, hemoglobin A1c value 9.27±1.60%) were divided into 2 groups.

Wistar fatty rats = assay: Glycated hemoglobin value in Wistar fatty rats given the compound in powder diet; type: in vivo, rat; settings: for decrease in the glycated hemoglobin value, corrected for control group: minus decrease in control a group; for decrease in glycated hemoglobin value (before minus after administration): male Wistar fatty rats
Procedure: In this Experimental Example, the blood of the rats were taken in a microtube finally containing 0.01M EDTA as an anticoagulant agent, for the measurement of blood glucose level and glycated hemoglobin value. The glycated hemoglobin value was measured by high performance liquid chromatograph (HLC-723GhbVA1c2.2 (product name, manufactured by Tosoh Corporation)) using an aminophenyl boronate affinity column and an absorbance (415 nm) detection method. For the mobile phase, eluents A, B (manufactured by Tosoh Corporation) were used, and the conditions set for chromatography, such as column temperature, flow rate and the like, followed the standard conditions set for this chromatography. […] The glycated hemoglobin value was measured at 4 and 5 weeks after the start of the experiment.

CCc1ccc(CCOc2ccc(CC3SC(=O)NC3=O)cc2)nc1 (centres unmarked) [pioglitazone hydrochloride]
decrease in the hemoglobin A1c value ([1]; 8 weeks after start of administration): 0.70%
decrease in hemoglobin A1c value, corrected for placebo group ([1]; 8 weeks, minus decrease in placebo group): 0.68%
decrease in the hemoglobin A1c value ([1]; 12 weeks after start of administration): 1.08%
decrease in the glycated hemoglobin value, corrected for control group (Wistar fatty rats; b group, 0.8 mg/kg body weight daily in diet, 4 weeks): 1.1%
decrease in the glycated hemoglobin value, corrected for control group (Wistar fatty rats; b group, 0.8 mg/kg body weight daily in diet, 5 weeks): 1.3%
decrease in glycated hemoglobin value (before minus after administration) (Wistar fatty rats; b group, 0.8 mg/kg body weight daily in diet, 4 weeks after start of administration): 1.4%
decrease in glycated hemoglobin value (before minus after administration) (Wistar fatty rats; b group, 0.8 mg/kg body weight daily in diet, 5 weeks after start of administration): 1.9%
decrease in the glycated hemoglobin value, corrected for control group (Wistar fatty rats; c group, 2.4 mg/kg body weight daily in diet, 4 weeks): 2.5%
decrease in the glycated hemoglobin value, corrected for control group (Wistar fatty rats; c group, 2.4 mg/kg body weight daily in diet, 5 weeks): 2.7%
decrease in glycated hemoglobin value (before minus after administration) (Wistar fatty rats; c group, 2.4 mg/kg body weight daily in diet, 4 weeks after start of administration): 2.8%
decrease in glycated hemoglobin value (before minus after administration) (Wistar fatty rats; c group, 2.4 mg/kg body weight daily in diet, 5 weeks after start of administration): 3.3%

— patent US20050142065A1, “Screening method” (priority 2002, published 2005)
